Kd data for one compound are collected here from publication PMC9527314, “Structural insights into the binding of zoledronic acid with RANKL via computational simulations” (Frontiers in Molecular Biosciences, 2022).

For orientation: Kd means the equilibrium constant for the complex coming apart. Read a low Kd as a tighter complex.

For this assay, the target named is T1, human RANKL trimer (Homo sapiens, UniProt O14788).
T1 construct: gene TNFSF11; recombinant human RANKL trimer protein from ACROBiosystems; homotrimer; amine-coupled to CM5 chip
T1 sequence (O14788 140-317 limits assumed): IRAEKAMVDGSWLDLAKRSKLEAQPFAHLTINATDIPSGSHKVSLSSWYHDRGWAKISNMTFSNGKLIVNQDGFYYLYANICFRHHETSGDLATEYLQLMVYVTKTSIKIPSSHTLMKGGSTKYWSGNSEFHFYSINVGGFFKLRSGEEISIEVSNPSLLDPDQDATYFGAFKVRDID
Nature of the assay: SPR (Biacore T200), RANKL immobilised on CM5 chip, steady-state fit. The format is binding. In general terms: Surface plasmon resonance follows binding to a sensor surface in real time, without labels.

`O=P(O)(O)C(O)(Cn1ccnc1)P(=O)(O)O` [Zoledronic acid] displayed a Kd of 228 µM.
